This is an account of results in US9751869B2, “LXR modulators” (BRISTOL-MYERS SQUIBB COMPANY, priority 2013, dated 2017).

The experiment concerns the target T1, LXRβ (Homo sapiens, UniProt P55055).
T1 construct: Co-transfection expression plasmids, comprising full-length LXRα (pCMX-h LXRα or LXRβ (pCMX-hLXRβ)); expressed in transfected cells; host or cells: CV-1 African green monkey kidney cells, transient transfection with pCMX-hLXRβ
T1 sequence (P55055 1-460): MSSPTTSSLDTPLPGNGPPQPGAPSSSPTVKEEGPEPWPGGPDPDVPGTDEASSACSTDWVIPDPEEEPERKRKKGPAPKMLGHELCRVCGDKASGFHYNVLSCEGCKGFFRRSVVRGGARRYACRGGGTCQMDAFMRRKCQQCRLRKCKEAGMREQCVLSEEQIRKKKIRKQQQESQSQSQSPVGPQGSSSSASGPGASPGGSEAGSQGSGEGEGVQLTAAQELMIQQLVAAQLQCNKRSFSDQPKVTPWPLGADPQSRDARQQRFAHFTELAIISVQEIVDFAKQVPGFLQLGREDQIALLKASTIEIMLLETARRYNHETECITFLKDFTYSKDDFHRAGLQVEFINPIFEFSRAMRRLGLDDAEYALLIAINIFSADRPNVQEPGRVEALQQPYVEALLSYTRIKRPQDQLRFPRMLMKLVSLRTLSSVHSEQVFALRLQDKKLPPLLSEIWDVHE
T1 sequence (P19793 1-462 partner): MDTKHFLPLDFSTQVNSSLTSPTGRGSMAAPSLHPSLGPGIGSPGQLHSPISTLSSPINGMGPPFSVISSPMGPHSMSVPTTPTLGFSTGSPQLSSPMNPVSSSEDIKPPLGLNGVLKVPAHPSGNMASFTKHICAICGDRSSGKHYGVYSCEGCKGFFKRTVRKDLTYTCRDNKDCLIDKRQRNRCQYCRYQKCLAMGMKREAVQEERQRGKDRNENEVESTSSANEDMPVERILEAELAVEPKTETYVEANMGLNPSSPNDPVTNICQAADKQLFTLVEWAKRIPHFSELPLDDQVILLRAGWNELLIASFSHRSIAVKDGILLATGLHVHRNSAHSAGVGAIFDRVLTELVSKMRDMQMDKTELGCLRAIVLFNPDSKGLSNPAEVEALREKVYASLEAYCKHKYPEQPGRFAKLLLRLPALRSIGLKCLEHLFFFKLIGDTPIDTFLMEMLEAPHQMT
Description: LXR/LXRE co-transfection assay (luciferase reporter) in CV-1 cells, LXRβ. The experiment is classed as cell-based. The note with it: for EC50: CV-1 cells transfected with pCMX-hLXRβ and LXREx1-Tk-Luciferase, 20 hours incubation, read-out: LXRbeta agonism EC50; for Emax / LXRbeta % EFFICACY: CV-1 cells, relative to maximum response of high control N-(3-((4-fluorophenyl)-(naphthalene-2-sulfonyl)amino)propyl)-2,2-dimethylpropionamide; for Emax: read-out: LXRbeta % EFFICACY
In outline:
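Luciferase read-out after 20 h compound treatment at 37 °C of CV-1 cells carrying transfected hLXRβ plus one-copy LXRE reporter, endogenous RXR partnering. Sigmoidal fit of 10-point half-log curves (4 wells each) gave EC50; % efficacy versus maximal response of the propionamide reference agonist.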

As to `Cc1cc(C(F)(F)F)nn1-c1ccc(-c2cccc(C(C)(C)C(N)=O)c2)cc1-n1nncc1-c1ccc(OC(F)(F)F)cc1` [Example 303, 2-methyl-2-{4′-[5-methyl-3-(trifluoromethyl)-1H-pyrazol-1-yl]-3′-(5-{4-[(trifluoromethyl)oxy]phenyl}-1H-1,2,3-triazol-1-yl)biphenyl-3-yl}propanamide], the concentration giving a half-maximal response (EC50) worked out at 825 nM and the Emax was found to be 102%.

Take `Cc1nc(-c2ccc(OC(F)(F)F)cc2)c(-c2cc(-c3cccc(S(C)(=O)=O)c3)ccc2-n2ccc(C(C)O)n2)o1` (single isomer, unassigned) [Example 368, 1-(1-(3-(2-methyl-4-(4-(trifluoromethoxy)phenyl)oxazol-5-yl)-3′-(methylsulfonyl)-[1,1′-biphenyl]-4-yl)-1H-pyrazol-3-yl)ethanol]: the concentration for a half-maximal effect (EC50) amounted to 890 nM and the “LXRbeta % EFFICACY” value turned out to be 50%.

Regarding `Cc1nc(-c2ccc3c(c2)OC(F)(F)O3)c(-c2cc(-c3cc(F)cc(S(C)(=O)=O)c3)ccc2-c2cc(C(F)(F)C(N)=O)nn2C)o1` [Example 45, 2-(5-(3-(4-(2,2-difluorobenzo[d][1,3]dioxol-5-yl)-2-methyloxazol-5-yl)-3′-fluoro-5′-(methylsulfonyl)biphenyl-4-yl)-1-methyl-1H-pyrazol-3-yl)-2,2-difluoroacetamide], the EC50 worked out at 297 nM and the Emax was 45%.

Regarding `Cc1nc(-c2ccc3c(c2)OC(F)(F)O3)c(-c2cc(-c3cc(F)c(CO)c(S(C)(=O)=O)c3)ccc2-c2cc(C(C)C#N)nn2C)o1` (centres unmarked) [Example 115, 2-(5-(3-(4-(2,2-difluorobenzo[d][1,3]dioxol-5-yl)-2-methyloxazol-5-yl)-3′-fluoro-4′-(hydroxymethyl)-5′-(methylsulfonyl)-[1,1′-biphenyl]-4-yl)-1-methyl-1H-pyrazol-3-yl)propanenitrile], the concentration giving a half-maximal response (EC50) was 19 nM and the Emax is 62%.

Regarding `Cc1nc(-c2ccc(OC(F)(F)F)cc2)c(-c2cc(-c3cccc(C(C)(C)C(N)=O)c3)ccc2-n2ccc(C(=O)NCC(F)(F)F)n2)o1` [Example 366], the concentration giving a half-maximal response (EC50) was 293 nM and the Emax worked out at 28%.

Take `Cc1nc(-c2ccc3c(c2)OC(F)(F)O3)c(-c2cc(-c3cc(F)c(CO)c(S(C)(=O)=O)c3)ccc2-c2cc(C(C)(C)C#N)nn2C)o1` [Example 67, 2-(5-(3-(4-(2,2-difluorobenzo[d][1,3]dioxol-5-yl)-2-methyloxazol-5-yl)-3′-fluoro-4′-(hydroxymethyl)-5′-(methylsulfonyl)biphenyl-4-yl)-1-methyl-1H-pyrazol-3-yl)-2-methylpropanenitrile]: the EC50 was determined as 24 nM and the “LXRbeta % EFFICACY” value is listed as 79%.

With `Cc1nc(-c2cc(-c3cc(F)c(CO)c(S(C)(=O)=O)c3)ccc2-n2ccc(C(F)(F)F)n2)c(-c2ccc(OC(F)(F)F)cc2)o1` [Example 413, (3-fluoro-3′-(2-methyl-5-(4-(trifluoromethoxy)phenyl)oxazol-4-yl)-5-(methylsulfonyl)-4′-(3-(trifluoromethyl)-1H-pyrazol-1-yl)biphenyl-4-yl)methanol], the EC50 is 52 nM and the Emax was determined as 73%.

For `Cc1nc(-c2ccc(OC(F)(F)F)cc2)c(-c2cc(-c3cc(F)c(CO)c(S(C)(=O)=O)c3)ccc2-n2cc(Cl)c(C(F)(F)F)n2)o1` [Example 379, (4′-(4-chloro-3-(trifluoromethyl)-1H-pyrazol-1-yl)-3-fluoro-3′-(2-methyl-4-(4-(trifluoromethoxy)phenyl)oxazol-5-yl)-5-(methylsulfonyl)-[1,1′-biphenyl]-4-yl)methanol], the concentration for a half-maximal effect (EC50) was 27 nM and the Emax worked out at 86%.

For `Cc1c(C(C)(F)F)nn(C)c1-c1ccc(-c2ccc(CO)c(S(C)(=O)=O)c2)cc1-n1nncc1-c1ccc(OC(F)(F)F)cc1` [Example 11, (4′-(3-(1,1-difluoroethyl)-1,4-dimethyl-1H-pyrazol-5-yl)-3-(methylsulfonyl)-3′-(5-(4-(trifluoromethoxy)phenyl)-1H-1,2,3-triazol-1-yl)biphenyl-4-yl)methanol], the EC50 stood at 15 nM and the Emax was 104%.

`Cn1nc(C(F)(F)CO)cc1-c1ccc(-c2cc(F)c(CO)c(S(C)(=O)=O)c2)cc1-n1nncc1-c1ccc(OC(F)(F)F)cc1` [Example 26, 2,2-difluoro-2-(5-(3′-fluoro-4′-(hydroxymethyl)-5′-(methylsulfonyl)-3-(5-(4-(trifluoromethoxy)phenyl)-1H-1,2,3-triazol-1-yl)-[1,1′-biphenyl]-4-yl)-1-methyl-1H-pyrazol-3-yl)ethanol]: the EC50 was found to be 903 nM and the Emax is 81%.

Take `Cc1c(C(C)(F)F)nn(C)c1-c1ccc(-c2cc(F)c(CO)c(S(C)(=O)=O)c2)cc1-n1nncc1-c1ccc(OC(F)(F)F)cc1` [Example 5]: the half-maximal effective concentration (EC50) was 12 nM and the Emax worked out at 109%.

For the compound `Cc1nc(-c2ccc3c(c2)OC(F)(F)O3)c(-c2cc(-c3cccc(S(C)(=O)=O)c3)ccc2-c2cc(-c3nnco3)nn2C)o1` [Example 100, 2-(5-(3-(4-(2,2-difluorobenzo[d][1,3]dioxol-5-yl)-2-methyloxazol-5-yl)-3′-(methylsulfonyl)-[1,1′-biphenyl]-4-yl)-1-methyl-1H-pyrazol-3-yl)-1,3,4-oxadiazole], the EC50 came out at 193 nM and the Emax was found to be 52%.

`Cc1nc(-c2ccc(OC(F)(F)F)cc2)c(-c2cc(-c3cc(F)c(CO)c(S(C)(=O)=O)c3)ccc2-n2ccc(C(C)(C)O)n2)o1` [Example 317, 2-(1-(3′-fluoro-4′-(hydroxymethyl)-3-(2-methyl-4-(4-(trifluoromethoxy)phenyl)oxazol-5-yl)-5′-(methylsulfonyl)biphenyl-4-yl)-1H-pyrazol-3-yl)propan-2-ol]: the EC50 was determined as 92 nM and the Emax was 27%.

`Cc1nc(-c2ccc(OC(F)F)c(F)c2)c(-c2cc(-c3cc(F)c(CO)c(S(C)(=O)=O)c3)ccc2-c2cc(C(F)(F)C(N)=O)nn2C)o1` [Example 71, 2-(5-(3-(4-(4-(difluoromethoxy)-3-fluorophenyl)-2-methyloxazol-5-yl)-fluoro-4′-(hydroxymethyl)-5′-(methylsulfonyl)biphenyl-4-yl)-1-methyl-1H-pyrazol-3-yl)-2,2-difluoroacetamide]: the EC50 came to 47 nM and the Emax was 52%.

Turning to `Cn1nc(C(F)(F)F)cc1-c1ccc(-c2cc(Cl)c(CO)c(S(C)(=O)=O)c2)cc1-n1nncc1-c1ccc(OC(F)(F)F)cc1` [Example 13], the EC50 was 45 nM and the Emax was determined as 83%.

On to `Cc1nc(-c2ccc(OC(F)(F)F)cc2)c(-c2cc(-c3ccc(CO)c(S(C)(=O)=O)c3)ccc2-n2ccc(C(C)(C)C#N)n2)o1` [Example 378, 2-(1-(4′-(hydroxymethyl)-3-(2-methyl-4-(4-(trifluoromethoxy)phenyl)oxazol-5-yl)-3-(methylsulfonyl)-[1,1′-biphenyl]-4-yl)-1H-pyrazol-3-yl)-2-methylpropanenitrile], for which the EC50 was 15 nM and the Emax came to 29%.

For the compound `CC(C)c1nc(-c2cc(-c3cccc(S(C)(=O)=O)c3)ccc2-n2ccc(C(F)(F)F)n2)c(-c2ccc(OC(F)(F)F)cc2)o1` [Example 399, 2-isopropyl-4-(3′-(methylsulfonyl)-4-(3-(trifluoromethyl)-1H-pyrazol-1-yl)biphenyl-3-yl)-5-(4-(trifluoromethoxy)phenyl)oxazole], the EC50 came out at 200 nM and the Emax was determined as 60%.

For the compound `CS(=O)(=O)c1cccc(-c2ccc(-n3ccc(C(F)(F)F)n3)c(-c3oc(C4CC4)nc3-c3ccc(OC(F)(F)F)cc3)c2)c1` [Example 338, 2-cyclopropyl-5-(3′-(methylsulfonyl)-4-(3-(trifluoromethyl)-1H-pyrazol-1-yl)biphenyl-3-yl)-4-(4-(trifluoromethoxy)phenyl)oxazole], the concentration giving a half-maximal response (EC50) came to 186 nM and the Emax stood at 58%.

With `Cc1nc(-c2ccc(OC(F)(F)F)cc2)c(-c2cc(-c3cc(F)c(CO)c(S(C)(=O)=O)c3)ccc2-n2ccc(C#N)n2)o1` [Example 319, 1-(3′-fluoro-4′-(hydroxymethyl)-3-(2-methyl-4-(4-(trifluoromethoxy)phenyl)oxazol-5-yl)-5′-(methylsulfonyl)biphenyl-4-yl)-1H-pyrazole-3-carbonitrile], the concentration for a half-maximal effect (EC50) is 71 nM and the Emax amounted to 80%.
